For 4 molecules, TGI results are on record in PubChem BioAssay (NCI).

SMILES strings stand for the structures.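 The compound was tested at five concentrations on cells cultured in 96-well plates, with a 48-hour exposure period. TGI: total growth inhibition.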 Where only a bound is given, the exact number is not on record here.

Holding throughout (assay): growth of human tumour cells (NCI), 48 h
The subject of experiment [1] is BT-549 breast.
In experiment [2] the test system is SNB-19 CNS.
For experiment [3], the system named is NCI-H522 lung.
In experiment [4] the test system is HOP-62 NSCLC.
For experiment [5], the system named is COLO 205 colon.
The test system of experiment [6] is SNB-75 CNS.
Experiment [7] deals with M14 melanoma.
Experiment [8] deals with EKVX NSCLC.
The test system of experiment [9] is ACHN renal.
Experiment [10] concerns NCI-H23 lung.
Experiment [11] relates to A549 NSCLC.
Experiment [12] relates to T-47D breast.
In experiment [13] the test system is NCI-H226 lung.
Experiment [14] relates to RXF 393 renal.
Experiment [15] relates to HT29 colon.
The test system of experiment [16] is TK-10 renal.
Experiment [17] concerns MALME-3M melanoma.
For experiment [18], the system named is DU-145 prostate.

For the molecule `CCCCCCCCCCCCN(CC(O)C(O)C(OC1OC(CO)C(O)C(O)C1O)C(O)CO)C(=O)CCCCCCCCCCC` (configuration not stated), the TGI came to 40.4 µM in [1]; 35.4 µM in [2]; 52.9 µM in [3]; 55.6 µM in experiment [4]; 35.3 µM in experiment [5]; 35 µM in experiment [6]. Moreover, the TGI in [7] worked out at 39.7 µM; in experiment [8], 34.4 µM; in experiment [9] it was 31 µM; in experiment [10], 46.2 µM; in [11], 55.3 µM; in [12] it was 62.3 µM. Moreover, the TGI came to 44.6 µM in experiment [13]; 67.5 µM in experiment [14]; 34.4 µM in experiment [15]; 29.9 µM in experiment [16]; 36 µM in experiment [17]; 35.8 µM in [18].

Consider `CCOC(=O)c1oc2cc3c(c4c2c1-c1ccccc1N4C)C=CC(C)(C)O3`, for which the TGI in [1] was 59.6 µM; in experiment [2], greater than 54.9 µM; in experiment [3] it was 42.6 µM; in experiment [4], 24.7 µM; in experiment [5], greater than 100 µM; in experiment [6], 36.4 µM. Also, the TGI in experiment [7] was greater than 100 µM; in experiment [8] it was 46.6 µM; in [9], 30.5 µM; in [10] it was greater than 67.4 µM; in experiment [11] it was greater than 100 µM; in experiment [12], greater than 84.4 µM. For the same molecule, the TGI in [13] was 48.9 µM; in experiment [14], 28.9 µM; in [15], greater than 64 µM; in experiment [16], 27.3 µM; in experiment [17] it was 54.3 µM; in [18], greater than 70 µM.

For the molecule `O=c1[nH]nc(-c2ccccc2)n1-c1ccncc1`, the TGI in experiment [1], in experiment [2], in [3], in experiment [4], in [5] and in [6] was greater than 100 µM in each case. In addition, the TGI in [7], in [8], in [9], in experiment [10], in experiment [11] and in experiment [12] was greater than 100 µM throughout. Moreover, the TGI in experiment [13], in experiment [14], in [15], in experiment [16], in [17] and in experiment [18] was greater than 100 µM in each case.

On to `CCC(C)(C)C1CCC2c3c([nH]c4ccccc34)C3C(=O)N(c4ccc(OC)cc4)C(=O)C3C2C1` (configuration not stated), for which the TGI was determined as 42.6 µM in [1]; 86.2 µM in experiment [2]; 20.6 µM in [3]; 23.2 µM in experiment [4]; 24.7 µM in experiment [5]; 42.2 µM in experiment [6]. In addition, the TGI in experiment [7] is greater than 100 µM; in experiment [8], greater than 100 µM; in experiment [9], 58.6 µM; in [10] it was 35.1 µM; in [11] it was 35.5 µM; in [12] it was 38.4 µM. The TGI was 37.3 µM in [13]; greater than 100 µM in experiment [14]; 24.9 µM in experiment [15]; 56.2 µM in [16]; 63 µM in experiment [17]; 28.9 µM in experiment [18].
